Data set [1] relates to Glomerella Lacenarium (Colletotrichum lacenarium). Description: Glomerella lagenarium (Colletotrichum lagenarium) liquid culture / cucumber / preventative (anthracnose). The data set is classed as cell-based. The note with it: 20 ppm in the applied formulation, liquid culture in PDB, 24° C., inhibition of growth measured photometrically 3 to 4 days after application, vs untreated control, read-out: disease control. The gist of the method: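 Conidia from cryogenic storage were mixed into potato dextrose broth and added to DMSO solutions of test compound in microtiter plates. Plates were incubated at 24° C. and growth inhibition read photometrically 3 to 4 days after application, as percent antifungal activity versus untreated check.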

In data set [2] the test system is Puccinia recondita f. Sp. Triticil. Put plainly: Puccinia recondita f. sp. tritici / wheat / leaf disc curative (brown rust). It counts as in vivo, Puccinia recondita f. sp. tritici on wheat cv. Kanzler. The note with it: foliar, 200 ppm in the applied formulation, applied 1 day after inoculation, assessed 6 to 8 days after application, vs untreated control leaf disks, read-out: disease control. A digest of the protocol: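 Wheat cv. Kanzler leaf segments on agar were inoculated with fungal spore suspension, held dark at 19° C and 75% RH, then sprayed 1 day later with formulated compound diluted in water. Incubation continued at 19° C, 75% RH, 12 h light/12 h dark; percent disease control versus untreated was scored 6 to 8 days after application.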

Data set [3] has as its system Uromyces viciae-Fabael. Description: Uromyces viciae-fabae / field bean / leaf disc preventative (faba-bean rust). The data set is classed as in vivo, Uromyces viciae-fabae on field bean. The note with it: foliar, 288 h, 100 ppm in the applied formulation, inoculated two hours after application, assessed 12 days after application, vs untreated control leaf discs, read-out: disease control.

Data set [4] relates to Puccinia recondita f. Sp. Tritici. Put plainly: Puccinia recondita f. sp. tritici / wheat / leaf disc preventative (brown rust). The data set is classed as in vivo, Puccinia recondita f. sp. tritici on wheat cv. Kanzler. The note with it: foliar, 200 ppm in the applied formulation, inoculated 1 day after application, assessed 7 to 9 days after application, vs untreated control leaf disks, read-out: disease control. The gist of the method: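 Wheat cv. Kanzler leaf segments on agar were sprayed with compound (DMSO stock diluted with 0.025% Tween20) 1 day before inoculation with spores. Segments were held at 19 °C, 75% rh, 12 h light/dark. Percent disease control versus untreated was scored 7–9 days after application.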

Data set [5] has as its system Phakopsora pachyrhizi. Put plainly: Phakopsora pachyrhizi / soybean / leaf disc preventative (Asian soybean rust). The data set is classed as in vivo, Phakopsora pachyrhizi on soybean. The note with it: foliar, 200 ppm in the applied formulation, inoculated one day after application, assessed 12 to 14 days after application, vs untreated control leaf disks, read-out: disease control. The gist of the method:
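Read-out is percent disease control relative to untreated check discs, assessed once untreated discs show adequate disease, 12 to 14 days after application. Compounds, tested at 200 ppm in the applied formulation, are sprayed onto soybean leaf discs one day before inoculation with a spore suspension.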

Molecules are shown by their SMILES.

Eleven molecules from US20180368410A1, “MICROBIOCIDAL OXADIAZOLE DERIVATIVES” (SYNGENTA PARTICIPATIONS AG, priority 2015, published 2018) can be followed below.

`O=C(NCc1ccc(-c2noc(C(F)(F)F)n2)cc1)C1CC1` [Compound 1.1, N-[[4-[5-(trifluoromethyl)-1,2,4-oxadiazol-3-yl]phenyl]methyl] cyclopropanecarboxamide] registered a melting point of 183 to 190 °C. Moreover, in data set [1], the inhibition of growth at 20 ppm was not below 80%. In addition, the pest or weed control at 200 ppm in data set [2] is not below 80%. In addition, in data set [3], the pest or weed control at 100 ppm was not below 80%. Further, the pest or weed control at 200 ppm in data set [4] was not below 80%. Also, in data set [5], the pest or weed control at 200 ppm is not below 80%.
`O=C(NCc1ccc(-c2noc(C(F)(F)F)n2)cc1)C1(F)CC1` [Compound 1.2, 1-fluoro-N-[[4-[5-(trifluoromethyl)-1,2,4-oxadiazol-3-yl]phenyl]methyl] cyclopropanecarboxamide] showed a melting point of 101 to 108 °C. The inhibition of growth at 20 ppm in data set [1] was not below 80%. Also, the pest or weed control at 200 ppm in data set [2] was not below 80%. Also, the pest or weed control at 100 ppm in data set [3] is not below 80%. The pest or weed control at 200 ppm in data set [4] was not below 80%. In addition, in data set [5], the pest or weed control at 200 ppm is not below 80%.
`O=C(NCc1ccc(-c2noc(C(F)(F)F)n2)cc1)c1ccccc1Cl` [Compound 1.3, 2-chloro-N-[[4-[5-(trifluoromethyl)-1,2,4-oxadiazol-3-yl]phenyl]methyl]benzamide] had a melting point of 136 to 142 °C. Moreover, the inhibition of growth at 20 ppm in data set [1] was not below 80%. Also, the pest or weed control at 100 ppm in data set [3] was not below 80%. Further, in data set [4], the pest or weed control at 200 ppm was not below 80%. The pest or weed control at 200 ppm in data set [5] is not below 80%.
The molecule `Cc1occc1C(=O)NCc1ccc(-c2noc(C(F)(F)F)n2)cc1` [Compound 1.4, 2-methyl-N-[[4-[5-(trifluoromethyl)-1,2,4-oxadiazol-3-yl]phenyl]methyl]furan-3-carboxamide] yielded a melting point of 102 to 112 °C. The inhibition of growth at 20 ppm in data set [1] was not below 80%. Moreover, the pest or weed control at 200 ppm in data set [2] is not below 80%. The pest or weed control at 100 ppm in data set [3] was not below 80%. Besides, in data set [4], the pest or weed control at 200 ppm is not below 80%. The pest or weed control at 200 ppm in data set [5] is not below 80%.
Consider `O=C(NCc1ccc(-c2noc(C(F)(F)F)n2)cc1)C1CCCO1` (centres unmarked) [Compound 1.5, N-[[4-[5-(trifluoromethyl)-1,2,4-oxadiazol-3-yl]phenyl]methyl] tetrahydrofuran-2-carboxamide], for which the melting point is 76 to 83 °C. Also, in data set [1], the inhibition of growth at 20 ppm is not below 80%. In data set [2], the pest or weed control at 200 ppm was not below 80%. Further, the pest or weed control at 100 ppm in data set [3] was not below 80%. Further, in data set [4], the pest or weed control at 200 ppm is not below 80%. Also, the pest or weed control at 200 ppm in data set [5] was not below 80%.
In turn, `O=C(NCc1ccc(-c2noc(C(F)(F)F)n2)c(F)c1)C1CC1` [Compound 1.57, N-[[3-fluoro-4-[5-(trifluoromethyl)-1,2,4-oxadiazol-3-yl]phenyl]methyl] cyclopropanecarboxamide] had a melting point of 139 to 140 °C. Also, the inhibition of growth at 20 ppm in data set [1] is not below 80%. Further, the pest or weed control at 200 ppm in data set [2] is not below 80%. Besides, the pest or weed control at 200 ppm in data set [4] is not below 80%. For the same molecule, the pest or weed control at 200 ppm in data set [5] was not below 80%.
`O=C(NCc1ccc(-c2noc(C(F)(F)F)n2)c(F)c1)C1CCCO1` (centres unmarked) [Compound 1.59, N-[[3-fluoro-4-[5-(trifluoromethyl)-1,2,4-oxadiazol-3-yl]phenyl]methyl] tetrahydrofuran-2-carboxamide] returned a melting point of 56 to 58 °C. The inhibition of growth at 20 ppm in data set [1] is not below 80%. For the same molecule, in data set [2], the pest or weed control at 200 ppm was not below 80%. Further, in data set [4], the pest or weed control at 200 ppm is not below 80%. Further, the pest or weed control at 200 ppm in data set [5] was not below 80%.
For `CC1=NOC(C(=O)NCc2ccc(-c3noc(C(F)(F)F)n3)c(F)c2)C1` (centres unmarked) [Compound 1.60, N-[[3-fluoro-4-[5-(trifluoromethyl)-1,2,4-oxadiazol-3-yl]phenyl]methyl]-3-methyl-4,5-dihydroisoxazole-5-carboxamide], the melting point is 134 to 138 °C. In data set [1], the inhibition of growth at 20 ppm was not below 80%. Moreover, in data set [2], the pest or weed control at 200 ppm is not below 80%. Further, in data set [4], the pest or weed control at 200 ppm was not below 80%. Besides, the pest or weed control at 200 ppm in data set [5] was not below 80%.
`O=C(NCc1ccc(-c2noc(C(F)(F)F)n2)c(F)c1F)C1CCCO1` (centres unmarked) [Compound 1.80, N-[[2,3-difluoro-4-[5-(trifluoromethyl)-1,2,4-oxadiazol-3-yl]phenyl]methyl] tetrahydrofuran-2-carboxamide] showed a melting point of 80 to 86 °C. Besides, in data set [1], the inhibition of growth at 20 ppm was not below 80%. The pest or weed control at 200 ppm in data set [2] was not below 80%. Further, in data set [4], the pest or weed control at 200 ppm is not below 80%. For the same molecule, in data set [5], the pest or weed control at 200 ppm was not below 80%.
On to `O=C(NCCc1ccc(-c2noc(C(F)(F)F)n2)cc1)C1CC1` [Compound 1.96, N-[2-[4-[5-(trifluoromethyl)-1,2,4-oxadiazol-3-yl]phenyl]ethyl] cyclopropanecarboxamide], for which the melting point was in the range of 150 to 151.1 °C. Moreover, the inhibition of growth at 20 ppm in data set [1] is not below 80%. Moreover, in data set [2], the pest or weed control at 200 ppm was not below 80%. In data set [4], the pest or weed control at 200 ppm was not below 80%. The pest or weed control at 200 ppm in data set [5] is not below 80%.
`O=C(NCCc1ccc(-c2noc(C(F)(F)F)n2)cc1)C1CCCO1` (centres unmarked) [Compound 1.97, N-[2-[4-[5-(trifluoromethyl)-1,2,4-oxadiazol-3-yl]phenyl]ethyl] tetrahydrofuran-2-carboxamide] registered a melting point of 68.7 to 70.5 °C. In addition, the inhibition of growth at 20 ppm in data set [1] was not below 80%. Further, the pest or weed control at 200 ppm in data set [2] was not below 80%. The pest or weed control at 200 ppm in data set [4] is not below 80%. Besides, in data set [5], the pest or weed control at 200 ppm is not below 80%.
